# Experimental data: patent publication US20240382483A1, “HETEROCYCLIC EGFR INHIBITORS FOR USE IN THE TREATMENT OF CANCER” (Blueprint Medicines Corporation, priority 2021, published 2024)
# Key:
# [1] = molecular target: T1, intracellular phosphorylation of EGFR in NCI-H1975 cell line that harbors the EGFR L858R T790M mutations (Homo sapiens, UniProt P00533, L858R/T790M); assay: NCI-H1975 pEGFR AlphaLISA assay; assay type: cell-based; conditions: NCI-H1975 cells (EGFR L858R T790M), p-EGFR (Tyr1068), 4-5 hours incubation; read-out: Ext pEGFR H1975 GMean IC50 (nM) Protocol: @Pharmaron AlphaLISA (Num)
# T1 construct: NCI-H1975 cell line that harbors the EGFR L858R T790M mutations (ATCC, CRL-5908); host or cells: NCI-H1975
# Description: On the next day, the test compounds and DMSO control were added into H1975 cell plate followed by incubation at 37C/5% CO2 for 4-5 hours. […] Then 5 μL of a donor bead mix was added to each well followed by overnight incubation at room temperature in dark. On the next day, the plate was read at a compatible plate reader to obtain pEGFR signal. Percent of pEGFR inhibition was plotted against log concentration of compounds to generate IC50 values.
# EGFR (L858R T790M C797S) = molecular target: T2, EGFR (L858R T790M C797S) (Homo sapiens, UniProt P00533, C797S/L858R/T790M); assay: Biochemical EGFR inhibition assay (Caliper mobility shift), EGFR LRTMCS; conditions: LRTMCS (PH) IC50 (nM) @ 1 mM ATP (Num), EGFR LRTMCS mutant
# T2 construct: purchased SignalChem E10-122VG
# Summary of the method: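 Caliper mobility shift read-out: product and substrate peptides separated by electrophoresis and quantified. Reactions at 25° C. taken to 10–20% peptide phosphorylation, quenched with 35 mM EDTA. Apparent IC50 from percent activity vs log [compound].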
# T1 sequence (P00533 25-1210 T790M/L858R): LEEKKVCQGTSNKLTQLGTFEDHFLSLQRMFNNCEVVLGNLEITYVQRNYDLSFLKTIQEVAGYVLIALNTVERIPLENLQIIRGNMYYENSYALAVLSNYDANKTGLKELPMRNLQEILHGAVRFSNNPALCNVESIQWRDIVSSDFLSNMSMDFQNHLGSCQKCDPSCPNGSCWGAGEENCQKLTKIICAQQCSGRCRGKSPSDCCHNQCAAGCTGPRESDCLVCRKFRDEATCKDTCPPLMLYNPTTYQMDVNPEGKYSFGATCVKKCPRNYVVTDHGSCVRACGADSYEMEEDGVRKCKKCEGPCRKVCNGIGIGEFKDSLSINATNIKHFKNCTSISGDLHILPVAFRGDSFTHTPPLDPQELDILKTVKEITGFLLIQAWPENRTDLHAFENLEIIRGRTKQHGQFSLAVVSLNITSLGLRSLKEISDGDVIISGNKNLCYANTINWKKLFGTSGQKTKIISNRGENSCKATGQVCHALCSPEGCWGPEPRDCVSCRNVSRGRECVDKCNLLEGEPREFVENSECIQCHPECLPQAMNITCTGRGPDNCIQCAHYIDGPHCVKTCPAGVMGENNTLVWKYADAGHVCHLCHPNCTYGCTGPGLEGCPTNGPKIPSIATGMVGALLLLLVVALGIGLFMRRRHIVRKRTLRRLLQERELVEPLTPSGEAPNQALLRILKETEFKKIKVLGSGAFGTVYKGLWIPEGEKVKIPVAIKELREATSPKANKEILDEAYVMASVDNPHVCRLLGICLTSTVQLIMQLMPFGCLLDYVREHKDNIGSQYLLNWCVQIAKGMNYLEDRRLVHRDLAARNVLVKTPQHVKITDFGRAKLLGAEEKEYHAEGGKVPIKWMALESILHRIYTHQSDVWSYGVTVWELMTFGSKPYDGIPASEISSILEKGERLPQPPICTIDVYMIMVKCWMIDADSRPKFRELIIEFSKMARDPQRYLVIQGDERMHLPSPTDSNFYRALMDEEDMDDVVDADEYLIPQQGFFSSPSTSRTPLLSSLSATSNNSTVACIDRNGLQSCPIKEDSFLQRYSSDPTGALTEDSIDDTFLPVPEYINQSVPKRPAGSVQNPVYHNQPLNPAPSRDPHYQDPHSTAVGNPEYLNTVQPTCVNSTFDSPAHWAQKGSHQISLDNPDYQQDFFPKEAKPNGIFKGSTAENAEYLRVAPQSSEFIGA
# T2 sequence (P00533 25-1210 T790M/C797S/L858R): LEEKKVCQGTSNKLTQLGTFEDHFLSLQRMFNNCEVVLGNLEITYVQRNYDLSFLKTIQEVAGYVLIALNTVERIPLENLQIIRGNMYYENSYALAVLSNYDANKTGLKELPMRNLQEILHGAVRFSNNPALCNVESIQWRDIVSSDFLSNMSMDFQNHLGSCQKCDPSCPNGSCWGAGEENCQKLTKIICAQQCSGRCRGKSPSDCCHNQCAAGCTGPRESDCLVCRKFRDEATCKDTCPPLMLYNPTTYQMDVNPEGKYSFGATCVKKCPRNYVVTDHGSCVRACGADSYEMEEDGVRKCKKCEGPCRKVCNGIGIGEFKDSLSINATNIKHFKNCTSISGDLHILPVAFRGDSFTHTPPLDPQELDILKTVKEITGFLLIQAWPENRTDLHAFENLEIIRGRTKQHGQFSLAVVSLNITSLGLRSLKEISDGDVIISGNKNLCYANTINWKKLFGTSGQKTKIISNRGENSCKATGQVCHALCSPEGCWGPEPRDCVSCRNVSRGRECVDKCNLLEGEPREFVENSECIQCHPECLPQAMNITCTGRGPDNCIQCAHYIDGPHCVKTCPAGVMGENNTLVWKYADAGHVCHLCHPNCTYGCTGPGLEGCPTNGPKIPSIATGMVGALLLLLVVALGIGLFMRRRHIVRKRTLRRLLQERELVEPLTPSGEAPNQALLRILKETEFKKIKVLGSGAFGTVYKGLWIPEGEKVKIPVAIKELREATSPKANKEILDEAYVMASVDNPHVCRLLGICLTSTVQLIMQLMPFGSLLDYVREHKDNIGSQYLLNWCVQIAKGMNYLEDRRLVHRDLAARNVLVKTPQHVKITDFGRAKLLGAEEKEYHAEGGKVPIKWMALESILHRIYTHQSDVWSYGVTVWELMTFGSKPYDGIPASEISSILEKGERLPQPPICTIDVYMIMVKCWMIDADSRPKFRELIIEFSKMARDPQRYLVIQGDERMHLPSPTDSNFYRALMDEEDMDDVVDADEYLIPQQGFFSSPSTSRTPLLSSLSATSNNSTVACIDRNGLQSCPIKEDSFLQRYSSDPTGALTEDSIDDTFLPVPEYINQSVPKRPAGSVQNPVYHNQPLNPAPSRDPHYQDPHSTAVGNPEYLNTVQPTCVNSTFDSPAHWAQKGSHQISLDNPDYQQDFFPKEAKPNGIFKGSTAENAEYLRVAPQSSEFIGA
smiles,measurement,setting,value
"CC(C)c1cnc(N2C[C@H](n3ccnn3)[C@H]2C)c2cnc(Nc3ccnc(N4CC[C@@](C)(O)[C@@H](F)C4)n3)cc12 [Example 144, (3S,4R)-3-fluoro-1-(4-((5-isopropyl-8-((2R,3S)-2-methyl-3-(1H-1,2,3-triazol-1-yl)azetidin-1-yl)-2,7-naphthyridin-3-yl)amino)pyrimidin-2-yl)-4-methylpiperidin-4-ol]",IC50,[1],30 to 50 nM
same,IC50,EGFR (L858R T790M C797S),15 to 20 nM
"CC(C)c1cnc(N2CC[C@H]2C)c2cnc(Nc3cnnc(N4CC[C@@H](O)[C@@](C)(F)C4)n3)cc12 (single isomer, unassigned) [Example 179, (3S,4R)-3-fluoro-1-(5-((5-isopropyl-8-((R)-2-methylazetidin-1-yl)-2,7-naphthyridin-3-yl)amino)-1,2,4-triazin-3-yl)-3-methylpiperidin-4-ol or (3R,4S)-3-fluoro-1-(5-((5-isopropyl-8-((R)-2-methylazetidin-1-yl)-2,7-naphthyridin-3-yl)amino)-1,2,4-triazin-3-yl)-3-methylpiperidin-4-ol]",IC50,[1],10 to 20 nM
same,IC50,EGFR (L858R T790M C797S),< 15 nM
"CC(C)c1cnc(N2CC[C@H]2C)c2cnc(Nc3ccnc(N4CC[C@@H](OCCN(C)C)[C@@H](F)C4)n3)cc12 [Example 203, N-(2-((3S,4R)-4-(2-(dimethylamino)ethoxy)-3-fluoropiperidin-1-yl)pyrimidin-4-yl)-5-isopropyl-8-((R)-2-methylazetidin-1-yl)-2,7-naphthyridin-3-amine]",IC50,[1],30 to 50 nM
same,IC50,EGFR (L858R T790M C797S),< 15 nM
"CC(C)c1cnc(N2CC(O)C2)c2cnc(Nc3ccnc(N4CC[C@@H](O)[C@@](C)(F)C4)n3)cc12 [Example 62, (3S,4R)-3-fluoro-1-(4-((8-(3-hydroxyazetidin-1-yl)-5-isopropyl-2,7-naphthyridin-3-yl)amino)pyrimidin-2-yl)-3-methylpiperidin-4-ol]",IC50,[1],30 to 50 nM
same,IC50,EGFR (L858R T790M C797S),< 15 nM
"CC(C)c1cnc(N2C[C@@H](F)[C@@H](F)C2)c2cnc(Nc3ccnc(N4CC[C@@H](O)[C@@](C)(F)C4)n3)cc12 [Example 56, (3S,4R)-1-(4-((8-(cis-3,4-difluoropyrrolidin-1-yl)-5-isopropyl-2,7-naphthyridin-3-yl)amino)pyrimidin-2-yl)-3-fluoro-3-methylpiperidin-4-ol]",IC50,[1],> 50 nM
same,IC50,EGFR (L858R T790M C797S),< 15 nM
"CC(C)c1ncc(-c2cnn(C)c2)c2cnc(Nc3ccnc(N4CC[C@@H](O)[C@@](C)(F)C4)n3)cc12 [Example 14, (3S,4R)-3-fluoro-1-(4-((5-isopropyl-8-(1-methyl-1H-pyrazol-4-yl)-2,6-naphthyridin-3-yl)amino)pyrimidin-2-yl)-3-methylpiperidin-4-ol]",IC50,[1],> 50 nM
same,IC50,EGFR (L858R T790M C797S),< 15 nM
"CC(C)c1cnc(N2CCC2)c2cnc(Nc3ccnc(N4CC[C@@H](O)[C@@](C)(F)C4)n3)cc12 [Example 46, (3S,4R)-1-(4-((8-(azetidin-1-yl)-5-isopropyl-2,7-naphthyridin-3-yl)amino)pyrimidin-2-yl)-3-fluoro-3-methylpiperidin-4-ol]",IC50,[1],20 to 30 nM
same,IC50,EGFR (L858R T790M C797S),< 15 nM
"CC(C)c1cnc(N2CC3(CCN(C)C3=O)C2)c2cnc(Nc3ccnc(N4CC[C@@H](O)[C@@](C)(F)C4)n3)cc12 [Example 99, 2-(6-((2-((3S,4R)-3-fluoro-4-hydroxy-3-methylpiperidin-1-yl)pyrimidin-4-yl)amino)-4-isopropyl-2,7-naphthyridin-1-yl)-6-methyl-2,6-diazaspiro[3.4]octan-5-one]",IC50,[1],30 to 50 nM
same,IC50,EGFR (L858R T790M C797S),30 to 100 nM
"COC[C@@H](C)c1cnc(N2CC[C@H]2C)c2cnc(Nc3ccnc(N4CC[C@@H](O)[C@@](C)(F)C4)n3)cc12 (single isomer, unassigned) [Example 215, (3S,4R)-3-fluoro-1-(4-((5-((S)-1-methoxypropan-2-yl)-8-((R)-2-methylazetidin-1-yl)-2,7-naphthyridin-3-yl)amino)pyrimidin-2-yl)-3-methylpiperidin-4-ol or (3S,4R)-3-fluoro-1-(4-((5-((R)-1-methoxypropan-2-yl)-8-((R)-2-methylazetidin-1-yl)-2,7-naphthyridin-3-yl)amino)pyrimidin-2-yl)-3-methylpiperidin-4-ol]",IC50,[1],30 to 50 nM
same,IC50,EGFR (L858R T790M C797S),< 15 nM
"Cc1nnc(-c2cnc(C(C)C)c3cc(Nc4ccnc(N5CC[C@@H](O)[C@@](C)(F)C5)n4)ncc23)o1 [Example 7, (3S,4R)-3-fluoro-1-(4-((5-isopropyl-8-(5-methyl-1,3,4-oxadiazol-2-yl)-2,6-naphthyridin-3-yl)amino)pyrimidin-2-yl)-3-methylpiperidin-4-ol]",IC50,[1],> 50 nM
same,IC50,EGFR (L858R T790M C797S),15 to 20 nM
"CC(C)c1cnc(N2C[C@H](O)[C@H]2C)c2cnc(Nc3ccnc(N4C[C@@H](F)[C@@H](O)[C@](C)(F)C4)n3)cc12 (single isomer, unassigned) [Example 136, (3R,4R,5R)-3,5-difluoro-1-(4-((8-((2R,3S)-3-hydroxy-2-methylazetidin-1-yl)-5-isopropyl-2,7-naphthyridin-3-yl)amino)pyrimidin-2-yl)-3-methylpiperidin-4-ol or (3S,4S,5S)-3,5-difluoro-1-(4-((8-((2R,3S)-3-hydroxy-2-methylazetidin-1-yl)-5-isopropyl-2,7-naphthyridin-3-yl)amino)pyrimidin-2-yl)-3-methylpiperidin-4-ol]",IC50,[1],20 to 30 nM
same,IC50,EGFR (L858R T790M C797S),< 15 nM
"CC(C)c1cnc(N2CC(C#N)C2)c2cnc(Nc3ccnc(N4CC[C@@H](O)[C@@](C)(F)C4)n3)cc12 [Example 58, 1-(6-((2-((3S,4R)-3-fluoro-4-hydroxy-3-methylpiperidin-1-yl)pyrimidin-4-yl)amino)-4-isopropyl-2,7-naphthyridin-1-yl)azetidine-3-carbonitrile]",IC50,[1],10 to 20 nM
same,IC50,EGFR (L858R T790M C797S),< 15 nM
"CC(C)c1cnc(N2CCCC2)c2cnc(Nc3ccnc(N4CC[C@@H](O)[C@@](C)(F)C4)n3)cc12 [Example 45, (3S,4R)-3-fluoro-1-(4-((5-isopropyl-8-(pyrrolidin-1-yl)-2,7-naphthyridin-3-yl)amino)pyrimidin-2-yl)-3-methylpiperidin-4-ol]",IC50,[1],> 50 nM
same,IC50,EGFR (L858R T790M C797S),20 to 30 nM
"CO[C@H]1CN(c2ncc([C@@H](C)CO)c3cc(Nc4ccnc(N5CC[C@@H](O)[C@@](C)(F)C5)n4)ncc23)[C@@H]1C (single isomer, unassigned) [Example 212, (3S,4R)-3-fluoro-1-(4-((5-((R)-1-hydroxypropan-2-yl)-8-((2R,3S)-3-methoxy-2-methylazetidin-1-yl)-2,7-naphthyridin-3-yl)amino)pyrimidin-2-yl)-3-methylpiperidin-4-ol or (3S,4R)-3-fluoro-1-(4-((5-((S)-1-hydroxypropan-2-yl)-8-((2R,3S)-3-methoxy-2-methylazetidin-1-yl)-2,7-naphthyridin-3-yl)amino)pyrimidin-2-yl)-3-methylpiperidin-4-ol]",IC50,[1],10 to 20 nM
same,IC50,EGFR (L858R T790M C797S),< 15 nM
"COC[C@@H](C)c1cnc(N2CC[C@H]2C)c2cnc(Nc3ccnc(N4CC[C@@H](O)[C@@](C)(F)C4)n3)cc12 (single isomer, unassigned) [Example 216, (3S,4R)-3-fluoro-1-(4-((5-((S)-1-methoxypropan-2-yl)-8-((R)-2-methylazetidin-1-yl)-2,7-naphthyridin-3-yl)amino)pyrimidin-2-yl)-3-methylpiperidin-4-ol or (3S,4R)-3-fluoro-1-(4-((5-((R)-1-methoxypropan-2-yl)-8-((R)-2-methylazetidin-1-yl)-2,7-naphthyridin-3-yl)amino)pyrimidin-2-yl)-3-methylpiperidin-4-ol]",IC50,[1],20 to 30 nM
same,IC50,EGFR (L858R T790M C797S),15 to 20 nM
"CNCCO[C@H]1CCN(c2nccc(Nc3cc4c(C(C)C)cnc(N5CC[C@H]5C)c4cn3)n2)C[C@H]1F [Example 200, N-(2-((3R,4S)-3-fluoro-4-(2-(methylamino)ethoxy)piperidin-1-yl)pyrimidin-4-yl)-5-isopropyl-8-((R)-2-methylazetidin-1-yl)-2,7-naphthyridin-3-amine]",IC50,[1],< 10 nM
same,IC50,EGFR (L858R T790M C797S),< 15 nM
"CC(C)c1cnc(-c2cnn(C3CN(C)C3)c2)c2cnc(Nc3ccnc(N4CC[C@@H](O)[C@@](C)(F)C4)n3)cc12 [Example 22, (3S,4R)-3-fluoro-1-(4-((5-isopropyl-8-(1-(1-methylazetidin-3-yl)-1H-pyrazol-4-yl)-2,7-naphthyridin-3-yl)amino)pyrimidin-2-yl)-3-methylpiperidin-4-ol]",IC50,[1],> 50 nM
same,IC50,EGFR (L858R T790M C797S),15 to 20 nM
"Cc1nnc(C2CN(c3ccc(C(C)C)c4cc(Nc5ccnc(N6CC[C@@H](O)[C@@](C)(F)C6)n5)ncc34)C2)o1 [Example 104, (3S,4R)-3-fluoro-1-(4-((5-isopropyl-8-(3-(5-methyl-1,3,4-oxadiazol-2-yl)azetidin-1-yl)isoquinolin-3-yl)amino)pyrimidin-2-yl)-3-methylpiperidin-4-ol]",IC50,[1],< 10 nM
same,IC50,EGFR (L858R T790M C797S),< 15 nM
